Data published in patent US20250049860A1, “METHOD FOR ISOLATING, MAINTAINING, PROLIFERATING, AND DIFFERENTIATING MONOCLONAL CELLS DERIVED FROM HUMAN SALIVARY GLAND EPITHELIAL STEM CELLS OR PROGENITOR CELLS AND PRODUCTION METHOD FOR EXTRACELLULAR VESICLES FOR TREATING SALIVARY GLAND DISEASES” (INDUSTRY-ACADEMIC COOPERATION FOUNDATION, YONSEI UNIVERSITY, priority 2021, published 2025).

B1: WNT: growth factor WNT3A, Recombinant Human Wnt-3a Protein (protein, UniProt P56704 19-352, looked up)
Protein Wnt-3a: SYPIWWSLAVGPQYSSLGSQPILCASIPGLVPKQLRFCRNYVEIMPSVAEGIKIGIQECQHQFRGRRWNCTTVHDSLAIFGPVLDKATRESAFVHAIASAGVAFAVTRSCAEGTAAICGCSSRHQGSPGKGWKWGGCSEDIEFGGMVSREFADARENRPDARSAMNRHNNEAGRQAIASHMHLKCKCHGLSGSCEVKTCWWSQPDFRAIGDFLKDKYDSASEMVVEKHRESRGWVETLRPRYTYFKVPTERDLVYYEASPNFCEPNPETGSFGTRDRTCNVSSHGIDGCDLLCCGRGHNARAERRREKCRCVFHWCCYVSCQECTRVYDVHTCK

Key:
Format in all cases: cell-based
[1] = test system: human salivary gland epithelial cells; assay: Small molecule compound combination check in K-SFM; conditions: for result of addition to the culture: various combinations of small molecule compounds
Excerpt: Isoproterenol had no effect.

[2] = test system: human salivary gland epithelial cells; assay: Concentration screening of small molecule compounds and their combination in Dermacult (KEM); conditions: added in combination to KEM (Dermacult)
Experimental: Dermacult, which can stably culture human salivary gland epithelial cells in CDM, was used as the epithelial cell culture medium (keratinocyte expansion medium, KEM), and the small molecule compounds ROCK I/II inhibitor (Y-27632), TGF-beta pathway inhibitor (A83-01), and BMP pathway inhibitor (LDN193189) were added to determine the optimal concentrations at which cell characteristics were maintained and stable long-term culture was achieved, respectively (FIG. 3).
Finally, the combination experiments with different concentrations of the small molecule compounds confirmed that salivary gland epithelial cell growth was best maintained when Y-27632 10 μM, A83-01 1 μM, and LDN193189 0.1 μM were added to KEM (FIG. 4).

[3] = test system: human salivary gland epithelial cells; assay: Addition of WNT during cell separation with initial SCM in K-SFM
Experimental: • (1) The cells were homogenized in 10 ml culture medium, spread evenly onto a 100×20 mm culture dish, and then incubated in an incubator at 37° C. and 5% CO2. In this case, the composition of each culture medium is as shown in Table 1. • (2) To perform the subfractionation culturing method (SCM) to isolate epithelial monoclonal cells, after 2 hours, the culture medium containing the cells was transferred to a new 100×20 mm culture dish. This procedure was repeated two more times. • (3) After 24 hours, the dish resulting from (2) was cultured, and the existing culture medium was removed every 2-3 days and replaced it with fresh culture medium. • (4) After confirming the formation of colonies, when the size of a cell cluster forming one colony exceeded 1 cm^2, the culture medium was removed, the cluster was marked with a hydrophobic pen, and the residual culture medium was removed using 1×PBS. 50 to 100 μL of TrypLE+Y27632 was added, and the cells were stored in an incubator at 37° C. and 5% CO2 environment for 15 minutes. • (5) Each cell population detached from the dish by TrypLE was added to a separate 1.5 ml tube, and 1 ml of culture medium was added. • (6) After centrifugation at 300 g for 5 minutes at 4° C., the supernatant was removed, and the cells were homogenized and spread in 250 μL of fresh culture medium into each well of a 48-well plate for each cell population. […]

Row | Molecule | result of addition to the culture [1] | concentration at which salivary gland epithelial cell growth was best maintained [2] | other results
1 | Cc1cccc(-c2nn(C(=S)Nc3ccccc3)cc2-c2ccnc3ccccc23)n1 [A83-01] | universally good results | 1 µM | 
2 | CC(C)Oc1ccc(-c2cnc3c(-c4ccnc5ccccc45)cnn3c2)cc1 [DMH-1] |  |  | concentration giving effects similar to Dermacult's YAL ([1]; LDN193189 replaced with DMH-1): 1 µM
3 | Cc1c[nH]c(-c2cnc(NCCNc3ccc(C#N)cn3)nc2-c2ccc(Cl)cc2Cl)n1 [Chir99021] | poor results |  | 
4 | CC(C)NCC(O)c1ccc(O)c(O)c1 (centres unmarked) [Isoproterenol] | no effect |  | 
5 | c1ccc2c(-c3cnn4cc(-c5ccc(N6CCNCC6)cc5)cnc34)ccnc2c1 [LDN193189] |  | 0.1 µM | 
6 | C[C@@H](N)[C@H]1CC[C@H](C(=O)Nc2ccncc2)CC1 [Y-27632] | universally good results | 10 µM | 
7 | O=C(NOC[C@H](O)CO)c1ccc(F)c(F)c1Nc1ccc(I)cc1F [PD0325901] | poor results |  | 
8 | B1 |  |  | effect on cell growth ([3]; initial addition): rapid cell growth; effect on cell morphology ([3]; prolonged addition): changed the morphology of the cells
